Results reported in patent US10100076B2, “Modified nucleosides for the treatment of viral infections and abnormal cellular proliferation” (priority 2000, dated 2018).

Experiments:
HCV replicon = HCV replicon system in Huh7 cells, replicon RNA by Q-RT-PCR (HCV ΔCt, ΔΔCt); format: cell-based, hepatitis C virus; details: for Ave. ΔΔCt: HCV RNA ΔCt minus rRNA ΔCt; for Ave. HCV RNA ΔCt: HCV replicon in Huh7 cells; for average ΔΔCt: HCV RNA ΔCt minus rDNA ΔCt
[1] = system: rRNA (host RNA polymerase I product); experiment: rRNA ΔCt in Huh7 replicon cells (effect on host RNA polymerases); details: Table 24, average of n
Description: In a typical setting, a compound might reduce both the host RNA polymerase activity and the replicon-encoded polymerase activity. Therefore, quantification of rRNA (or any other host RNA polymerase I product) or beta-actin mRNA (or any other host RNA polymerase II) and comparison with RNA levels of the no-drug control is a relative measurement of the effect of the test compound on host RNA polymerases.
With the availability of both the HCV ΔCt data and the rRNA ΔCt, a specificity parameter can be introduced. This parameter is obtained by subtracting both ΔCt values from each other.

rDNA (host DNA) = experiment: rDNA ΔCt in Huh7 replicon cells (effect on cellular DNA polymerases); details: Table 25, average of N
Description: In another typical setting, a compound might reduce the host RNA polymerase activity, but not the host DNA polymerase activity. Therefore, quantification of rDNA or beta-actin DNA (or any other host DNA fragment) and comparison with DNA levels of the no-drug control is a relative measurement of the inhibitory effect of the test compound on cellular DNA polymerases.
With the availability of both the HCV ΔCt data and the rDNA ΔCt, a specificity parameter can be introduced. This parameter is obtained by subtracting both ΔCt values from each other.
Also: test concentration or dose not given here.

With `NC(=O)c1ncn([C@@H]2O[C@H](CO)[C@@H](O)[C@H]2O)n1` [RIB, ribavirin, reference compound] the “Ave. ΔΔCt” value (HCV replicon; Table 24) was 0.78, the “Ave. HCV RNA ΔCt” value (HCV replicon; Table 24, average of n) was 3.13 and the “Ave. rRNA ΔCt” value [1] was 2.35.
`Nc1ccn([C@@H]2O[C@H](CO)[C@@H](O)[C@@H]2O)c(=O)n1` [β-D-AA] was tested, and the “Ave. ΔΔCt” value (HCV replicon; Table 24) was 1.42, the “Ave. HCV RNA ΔCt” value (HCV replicon; Table 24, average of n) was 3.83 and the “average ΔΔCt” value (HCV replicon; Table 25) was 1.88. For the same molecule, the “Ave. HCV RNA ΔCt” value (HCV replicon; Table 25, average of N) was 3.83, the “Ave. rDNA ΔCt” value (rDNA (host DNA)) was 2.53 and the “Ave. rRNA ΔCt” value [1] was 2.41.
For `Nc1ccn([C@@H]2O[C@H](CO)[C@H](Br)[C@H]2O)c(=O)n1` [β-D-AI], the “Ave. ΔΔCt” value (HCV replicon; Table 24) was 0.48, the “Ave. HCV RNA ΔCt” value (HCV replicon; Table 24, average of n) was 2.93 and the “average ΔΔCt” value (HCV replicon; Table 25) was 4.55. The “Ave. HCV RNA ΔCt” value (HCV replicon; Table 25, average of N) was 3.76, the “Ave. rDNA ΔCt” value (rDNA (host DNA)) was −0.96 and the “Ave. rRNA ΔCt” value [1] was 2.43.
`CS(=O)(=O)OC1C(CO)OC(n2ccc(N)nc2=O)C1O` [β-D-AK] was tested, and the “Ave. ΔΔCt” value (HCV replicon; Table 24) was 1.25, the “Ave. HCV RNA ΔCt” value (HCV replicon; Table 24, average of n) was 3.73 and the “average ΔΔCt” value (HCV replicon; Table 25) was 0.79. The “Ave. HCV RNA ΔCt” value (HCV replicon; Table 25, average of N) was 3.51, the “Ave. rDNA ΔCt” value (rDNA (host DNA)) was 2.69 and the “Ave. rRNA ΔCt” value [1] was 2.48.
In the case of `Cc1ccc(S(=O)(=O)O[C@@H]2[C@@H](O)[C@H](n3ccc(N)nc3=O)O[C@@H]2CO)cc1` [β-D-AL], the “Ave. ΔΔCt” value (HCV replicon; Table 24) was 0.36, the “Ave. HCV RNA ΔCt” value (HCV replicon; Table 24, average of n) was 3.08 and the “average ΔΔCt” value (HCV replicon; Table 25) was 0.61. For the same molecule, the “Ave. HCV RNA ΔCt” value (HCV replicon; Table 25, average of N) was 3.18, the “Ave. rDNA ΔCt” value (rDNA (host DNA)) was 2.56 and the “Ave. rRNA ΔCt” value [1] was 2.72.
`Nc1ccn([C@@H]2O[C@H](CO)[C@@H](O)[C@@H]2Cl)c(=O)n1` [β-D-AN] was tested, and the “Ave. ΔΔCt” value (HCV replicon; Table 24) was 1.22, the “Ave. HCV RNA ΔCt” value (HCV replicon; Table 24, average of n) was 3.33 and the “average ΔΔCt” value (HCV replicon; Table 25) was 1.88. For the same molecule, the “Ave. HCV RNA ΔCt” value (HCV replicon; Table 25, average of N) was 3.86, the “Ave. rDNA ΔCt” value (rDNA (host DNA)) was 2.53 and the “Ave. rRNA ΔCt” value [1] was 2.11.
In the case of `[2H]c1c(N)nc(=O)n([C@@H]2O[C@H](CO)[C@@H](O)[C@@H]2O)c1[2H]` [β-D-AO], the “Ave. ΔΔCt” value (HCV replicon; Table 24) was 1.97, the “Ave. HCV RNA ΔCt” value (HCV replicon; Table 24, average of n) was 4.10 and the “average ΔΔCt” value (HCV replicon; Table 25) was 2.26. The “Ave. HCV RNA ΔCt” value (HCV replicon; Table 25, average of N) was 4.10, the “Ave. rDNA ΔCt” value (rDNA (host DNA)) was 1.84 and the “Ave. rRNA ΔCt” value [1] was 2.13.
With `Nc1nc(=O)n([C@@H]2O[C@H](CO)[C@@H](O)[C@@H]2O)cc1F` [β-D-AP] the “Ave. ΔΔCt” value (HCV replicon; Table 24) was 0.05, the “Ave. HCV RNA ΔCt” value (HCV replicon; Table 24, average of n) was 3.27 and the “average ΔΔCt” value (HCV replicon; Table 25) was 1.02. For the same molecule, the “Ave. HCV RNA ΔCt” value (HCV replicon; Table 25, average of N) was 3.27, the “Ave. rDNA ΔCt” value (rDNA (host DNA)) was 2.26 and the “Ave. rRNA ΔCt” value [1] was 3.23.
In the case of `Nc1nc(=O)n([C@@H]2O[C@H](CO)[C@@H](O)[C@H]2O)cc1F` [β-D-AQ], the “Ave. ΔΔCt” value (HCV replicon; Table 24) was 1.22, the “Ave. HCV RNA ΔCt” value (HCV replicon; Table 24, average of n) was 4.45 and the “average ΔΔCt” value (HCV replicon; Table 25) was 2.73. For the same molecule, the “Ave. HCV RNA ΔCt” value (HCV replicon; Table 25, average of N) was 4.75, the “Ave. rDNA ΔCt” value (rDNA (host DNA)) was 1.78 and the “Ave. rRNA ΔCt” value [1] was 3.22.
In the case of `Nc1nc(=O)n(C2OC(CO)C(Br)C2O)cc1F` [β-D-AT], the “Ave. ΔΔCt” value (HCV replicon; Table 24) was 0.64, the “Ave. HCV RNA ΔCt” value (HCV replicon; Table 24, average of n) was 3.71 and the “average ΔΔCt” value (HCV replicon; Table 25) was 1.43. For the same molecule, the “Ave. HCV RNA ΔCt” value (HCV replicon; Table 25, average of N) was 3.81, the “Ave. rDNA ΔCt” value (rDNA (host DNA)) was 2.43 and the “Ave. rRNA ΔCt” value [1] was 3.07.
In the case of `Nc1nc(=O)n([C@@H]2O[C@H](CO)[C@H](Br)[C@H]2O)cc1I` [β-D-BE], the “Ave. ΔΔCt” value (HCV replicon; Table 24) was 1.64, the “Ave. HCV RNA ΔCt” value (HCV replicon; Table 24, average of n) was 4.44 and the “average ΔΔCt” value (HCV replicon; Table 25) was 2.98. The “Ave. HCV RNA ΔCt” value (HCV replicon; Table 25, average of N) was 4.99, the “Ave. rDNA ΔCt” value (rDNA (host DNA)) was 2.06 and the “Ave. rRNA ΔCt” value [1] was 2.80.
With `Cc1ccc(S(=O)(=O)O[C@@H]2[C@@H](O)[C@H](n3cc(I)c(N)nc3=O)O[C@@H]2CO)cc1` [β-D-BF] the “Ave. ΔΔCt” value (HCV replicon; Table 24) was 1.68, the “Ave. HCV RNA ΔCt” value (HCV replicon; Table 24, average of n) was 4.37 and the “average ΔΔCt” value (HCV replicon; Table 25) was 3.28. For the same molecule, the “Ave. HCV RNA ΔCt” value (HCV replicon; Table 25, average of N) was 5.27, the “Ave. rDNA ΔCt” value (rDNA (host DNA)) was 2.04 and the “Ave. rRNA ΔCt” value [1] was 2.69.
`Nc1nc(=O)n([C@@H]2O[C@H](CO)[C@@H](O)[C@@H]2Br)cc1I` [β-D-BH] was tested, and the “Ave. ΔΔCt” value (HCV replicon; Table 24) was 2.15, the “Ave. HCV RNA ΔCt” value (HCV replicon; Table 24, average of n) was 3.06 and the “average ΔΔCt” value (HCV replicon; Table 25) was 1.64. For the same molecule, the “Ave. HCV RNA ΔCt” value (HCV replicon; Table 25, average of N) was 3.06, the “Ave. rDNA ΔCt” value (rDNA (host DNA)) was 1.42 and the “Ave. rRNA ΔCt” value [1] was 0.91.
With `CC(=O)Nc1ccn([C@@H]2O[C@H](CO)[C@@H](O)[C@@H]2O)c(=O)n1` [β-D-BO] the “Ave. ΔΔCt” value (HCV replicon; Table 24) was 1.57, the “Ave. HCV RNA ΔCt” value (HCV replicon; Table 24, average of n) was 4.52 and the “Ave. rRNA ΔCt” value [1] was 2.95.
In the case of `CC1(CO)CO[C@@H](n2cnc3c(N)nc(F)nc32)C1` (stereo partly drawn) [β-D-VA], the “Ave. ΔΔCt” value (HCV replicon; Table 24) was 1.39, the “Ave. HCV RNA ΔCt” value (HCV replicon; Table 24, average of n) was 5.56 and the “Ave. rRNA ΔCt” value [1] was 4.17.
